Molecular target: Histone deacetylase (Homo sapiens) (UniProt Q13547+O15379+Q9UBN7+Q92769+Q9UQL6+Q8WUI4+Q9BY41+Q96DB2+P56524+Q9UKV0+Q969S8)
Assay: Inhibition of HDAC in human HeLa nuclear extract at 1 uM using Boc-Lys(acetyl)-AMC as fluorogenic substrate measured after 1 hr by flourescence plate reader method relative to control
Format: subcellular
Settings: Nucleus

## O=C(CCCSC[C@H](NS(=O)(=O)c1cccc(F)c1)C(=O)N[C@@H](Cc1c[nH]c2ccccc12)C(=O)NC1CCC1)NO
  inhibition: 82%
